Literature values, collected in patent publication US20260335448A1 (priority 2022, published 2026).
Read-outs that look alike come from different tables or passages of the source.

Columns and labels:
dengue virus = conditions: in vitro
West Nile virus = conditions: in vitro
[1] = test system: Venezuelan equine encephalitis virus
pseudorabies virus [2] = test system: pseudorabies virus
pseudorabies virus [3] = conditions: in vivo
[4] = test system: SARS-COV-2-infected Vero/hSLAM cells; conditions: in vitro, at high concentrations
breast cancer = conditions: in vitro
colon cancer = conditions: in vitro
gastric cancer = conditions: in vitro
glioblastoma = conditions: in vitro
leukemia = conditions: in vitro
melanoma = conditions: in vitro
ovarian cancer = conditions: in vitro

Substance: ivermectin
- anti-viral activity (dengue virus): activity in vitro
- anti-viral activity (West Nile virus): activity in vitro
- anti-viral activity [1]: activity in vitro
- anti-viral activity (pseudorabies virus [2]): activity in vitro
- anti-viral activity (pseudorabies virus [3]): activity in vitro and in vivo
- anti-viral activity [4]: activity in vitro
- anti-tumor activity (breast cancer): activity in vitro
- anti-tumor activity (colon cancer): activity in vitro
- anti-tumor activity (gastric cancer): activity in vitro
- anti-tumor activity (glioblastoma): activity in vitro
- anti-tumor activity (leukemia): activity in vitro
- anti-tumor activity (melanoma): activity in vitro
- anti-tumor activity (ovarian cancer): activity in vitro
